Measurements as given in patent US12398154B2, “Azaquinazoline pan-KRas inhibitors” (Mirati Therapeutics, Inc., priority 2020, dated 2025).

Columns and labels:
pERK in H358 cells = assay: Inhibition of KRas phosphorylation of ERK (Cisbio HTRF pERK assay); conditions: Homo sapiens, NCI-H358, read-out: Inhibition (HTRF IC50) of KRas-mediated Phosphorylation of ERK, H358
pERK in H727 cells = assay: as above; conditions: Homo sapiens, NCI-H727, read-out: Inhibition (HTRF IC50) of KRas-mediated Phosphorylation of ERK, H727
pERK in PSN1 cells = assay: as above; conditions: Homo sapiens, PSN1, 3 h, read-out: Inhibition (HTRF IC50) of KRas-mediated Phosphorylation of ERK, PSN1
pERK in A549 cells = assay: as above; conditions: Homo sapiens, A549, read-out: Inhibition (HTRF IC50) of KRas-mediated Phosphorylation of ERK, A549
KRas G12D = KRas G12D (Homo sapiens, UniProt P01116, G12D); assay: biochemical;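 note: TR-FRET displacement binding assay on KRas, read after a one-hour incubation at room temperature, IC50 fitted from percent-of-control values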
Chain of KRas G12D (P01116 1-169 isoform P01116-2 G12D): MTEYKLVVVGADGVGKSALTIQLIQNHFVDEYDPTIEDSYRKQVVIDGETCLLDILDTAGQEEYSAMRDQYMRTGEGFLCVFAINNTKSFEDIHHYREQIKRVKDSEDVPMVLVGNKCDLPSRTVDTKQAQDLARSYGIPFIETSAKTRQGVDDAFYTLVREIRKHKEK
Procedure: (§2) The ability of a compound to bind to KRas was measured using a TR-FRET displacement assay. […] After a 60-minute incubation at room temperature, the reaction was measured using a BMG LABTECH CLARIO star Plus via TR-FRET. […] The POC values were fit to a 4-parameter IC50 equation and the IC50 value reported.

pERK in H460 cells = assay: Inhibition of KRas phosphorylation of ERK (Cisbio HTRF pERK assay); conditions: Homo sapiens, NCI-H460, read-out: Inhibition (HTRF IC50) of KRas-mediated Phosphorylation of ERK, H460
Procedure: (§3) To harvest cells from flask using 0.05% Trypsin/EDTA solution. Add 10 mL of media to stop trypsinizing. Pipette the cells into a conical bottom 50 mL centrifuge tube and centrifuge 5 min×1000 rpm. • 2. Re-suspend the cell pellet in media, take a cell count, and then adjust the cell density using fresh media. • 3. Seed 6,000 cells into cell culture plate with 50 μL media. […] Incubate cell plate overnight in a 37° C., 5% CO2 incubator. • Compound titrations • 1. Use Tecan to complete the compound addition. Compounds start from 10 uM top, 3-fold dilution, and 10 doses. The final DMSO concentration is 0.8%. Dispensed 0.2 uM Trametinib as Min control. • 2. Incubate cell plate for 3 hrs in the incubator. • Detection with cisbio pERK HTRF kit • 1. […] At the end of the compound treatment, flick-off the media. • 3. Add 35 μL of lysis buffer per well using a Multidrop Combi. Then place on a plate agitator shaking at 300 rpm at 4° C. for 40 mins. • 4. Make up the HTRF antibody buffer. For each assay plate, mix 50 μL of d2-conjugate antibody with 950 μL of detection buffer. Similarly, mix 50 μL of Cryptate antibody with 950 μL of detection buffer. Then mix the two diluted antibodies together. • 5. Dispense 3.4 μL the antibody buffer to wells of an empty assay plate. Seal the plate and centrifuge plate 30 sec×1000 rpm. • 6. At the end of the 4° C. lysis, centrifuge the lysate plates 3 mins×1500 rpm. • 7. Use the Bravo to transfer 13.6 μL of lysate from cell culture plate to assay plate.
(§4) Then incubate assay plate for 2 hrs at room temperature. […] At the end of incubation, read plate on the Envision after centrifuging plate 30 sec× • 1000 rpm.

pERK in HCT116 cells = assay: as above; conditions: Homo sapiens, HCT-116, read-out: Inhibition (HTRF IC50) of KRas-mediated Phosphorylation of ERK, HCT116
pERK in MKN1 cells = assay: as above; conditions: Homo sapiens, MKN-1, 3 h, read-out: Inhibition (HTRF IC50) of KRas-mediated Phosphorylation of ERK, MKN1
KRas G12R = KRas G12R (Homo sapiens, UniProt P01116, G12R); assay: biochemical;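 note: TR-FRET displacement assay of compound binding to KRas, read after one hour at room temperature, potency from a four-parameter fit of percent-of-control values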
Chain of KRas G12R (P01116 1-169 isoform P01116-2 G12R): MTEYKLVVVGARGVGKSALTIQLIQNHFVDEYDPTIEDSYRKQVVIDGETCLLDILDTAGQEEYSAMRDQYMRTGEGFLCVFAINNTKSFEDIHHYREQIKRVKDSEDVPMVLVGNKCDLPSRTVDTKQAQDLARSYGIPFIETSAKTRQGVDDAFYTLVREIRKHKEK
Procedure: as §2

pERK in ASPC1 cells = assay: Inhibition of KRas phosphorylation of ERK (Cisbio HTRF pERK assay); conditions: Homo sapiens, ASPC1, read-out: Inhibition (HTRF IC50) of KRas-mediated Phosphorylation of ERK, AsPC-1
Procedure: as §3, §4

KRas G12V = KRas G12V (Homo sapiens, UniProt P01116, G12V); assay: biochemical;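 note: KRas binding measured by TR-FRET displacement at room temperature, IC50 fitted from percent of control values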
Chain of KRas G12V (P01116 1-169 isoform P01116-2 G12V): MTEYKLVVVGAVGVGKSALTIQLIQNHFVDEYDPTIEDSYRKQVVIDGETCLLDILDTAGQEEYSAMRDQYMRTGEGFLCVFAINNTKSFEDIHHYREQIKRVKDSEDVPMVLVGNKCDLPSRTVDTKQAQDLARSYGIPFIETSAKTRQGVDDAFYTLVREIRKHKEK
Procedure: as §2

[1] = tested on: phospho-ERK in NCI-H460 (Q61H) cells; assay: Inhibition of KRas-mediated phosphorylation of ERK (in-cell western); type: cell-based; conditions: Homo sapiens, NCI-H460, 3 h, 3 hours compound, phospho-ERK normalized to GAPDH
Method in brief: (§1)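 Cells were treated with compound for 3 hours (0.5% DMSO final), then fixed with formaldehyde and permeabilized with ice-cold methanol. Phospho-ERK (Thr202/Tyr204) was detected by antibody and normalized to GAPDH per well, expressed as percent of DMSO control, and IC50 obtained by 4-parameter fit.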

[2] = tested on: phospho-ERK in AsPC-1 (G12D) cells; assay: as above; type: cell-based; conditions: Homo sapiens, ASPC1, 3 h, 3 hours compound, phospho-ERK normalized to GAPDH
Method in brief: as §1

[3] = tested on: phospho-ERK in NCI-H727 (G12V) cells; assay: as above; type: cell-based; conditions: Homo sapiens, NCI-H727, 3 h, 3 hours compound, phospho-ERK normalized to GAPDH
Method in brief: as §1

| SMILES | IC50 (pERK in H358 cells) [nM] | IC50 (pERK in H727 cells) [nM] | IC50 (pERK in PSN1 cells) [nM] | IC50 (pERK in A549 cells) [nM] | IC50 (KRas G12D) [nM] | IC50 (pERK in H460 cells) [nM] | IC50 (pERK in HCT116 cells) [nM] | IC50 (pERK in MKN1 cells) [nM] | IC50 (KRas G12R) [nM] | IC50 (pERK in ASPC1 cells) [nM] | IC50 (KRas G12V) [nM] | IC50 [1] [nM] | IC50 [2] [nM] | IC50 [3] [nM] |
| --- | --- | --- | --- | --- | --- | --- | --- | --- | --- | --- | --- | --- | --- | --- |
| CCc1c(F)ccc2cc(O)cc(-c3ncc4c(N5C[C@@H](CO)C[C@](C)(O)C5)nc(OC[C@@]56CCCN5C[C@H](F)C6)nc4c3F)c12 (mixture of isomers) [Example 327, (3RS,5RS)-1-(7-(8-ethyl-7-fluoro-3-hydroxynaphthalen-1-yl)-8-fluoro-2-(((2R,7aS)-2-fluorotetrahydro-1H-pyrrolizin-7a(5H)-yl)methoxy)pyrido[4,3-d]pyrimidin-4-yl)-5-(hydroxymethyl)-3-methylpiperidin-3-ol] | 10 | 98 | 6690 | 238 | ≤ 2 | 206 | 381 | 14 | ≤ 2 | 23 | ≤ 2 | – | – | – |
| CCc1c(F)ccc2cc(O)cc(-c3ncc4c(N5CCCOCC5)nc(OC[C@@]56CCCN5C[C@H](F)C6)nc4c3F)c12 [Example 315, 5-ethyl-6-fluoro-4-(8-fluoro-2-(((2R,7aS)-2-fluorohexahydro-1H-pyrrolizin-7a-yl)methoxy)-4-(1,4-oxazepan-4-yl)pyrido[4,3-d]pyrimidin-7-yl)naphthalen-2-ol] | 5 | 20 | 1960 | 28 | – | 34 | 24 | 5 | – | 20 | – | – | – | – |
| CCc1c(F)ccc2cc(O)cc(-c3ncc4c(N5CCC[C@@](C)(O)C5)nc(OCC5(CN(C)C)CC5)nc4c3F)c12 [Example 316, (R)-1-(2-((1-((dimethylamino)methyl)cyclopropyl)methoxy)-7-(8-ethyl-7-fluoro-3-hydroxynaphthalen-1-yl)-8-fluoropyrido[4,3-d]pyrimidin-4-yl)-3-methylpiperidin-3-ol] | 9 | 32 | 2040 | 51 | – | 69 | 30 | 1 | – | 8 | – | – | – | – |
| CCc1c(F)ccc2cc(O)cc(-c3ncc4c(N5CCC[C@@](C)(O)C5)nc(OCC5(CN6CCCCC6)CC5)nc4c3F)c12 [Example 331, (R)-1-(7-(8-ethyl-7-fluoro-3-hydroxynaphthalen-1-yl)-8-fluoro-2-((1-(piperidin-1-ylmethyl)cyclopropyl)methoxy)pyrido[4,3-d]pyrimidin-4-yl)-3-methylpiperidin-3-ol] | 3 | 35 | – | 6 | ≤ 2 | 16 | 27 | 1 | ≤ 2 | 4 | ≤ 2 | – | – | – |
| CCc1c(F)ccc2cc(O)cc(-c3ncc4c(N5CCC[C@@](C)(O)C5)nc(OCC5(CN6CCOCC6)CC5)nc4c3F)c12 [Example 332, (R)-1-(7-(8-ethyl-7-fluoro-3-hydroxynaphthalen-1-yl)-8-fluoro-2-((1-(morpholinomethyl)cyclopropyl)methoxy)pyrido[4,3-d]pyrimidin-4-yl)-3-methylpiperidin-3-ol] | 3 | 31 | 710 | 13 | ≤ 2 | 22 | 48 | 2 | 3 | 6 | ≤ 2 | – | – | – |
| CCc1c(F)ccc2cc(O)cc(-c3ncc4c(N5CCC[C@@](C)(O)C5)nc(OCC5(CN6CCN(C)CC6)CC5)nc4c3F)c12 [Example 336, (R)-1-(7-(8-ethyl-7-fluoro-3-hydroxynaphthalen-1-yl)-8-fluoro-2-((1-((4-methylpiperazin-1-yl)methyl)cyclopropyl)methoxy)pyrido[4,3-d]pyrimidin-4-yl)-3-methylpiperidin-3-ol] | 59 | 129 | 4120 | 75 | ≤ 2 | 162 | 208 | 4 | ≤ 2 | 32 | ≤ 2 | – | – | – |
| C[C@@]1(O)CCCN(c2nc(OC[C@@]34CCCN3C[C@H](F)C4)nc3c(F)c(-c4cc(O)cc5ccc(F)c(F)c45)ncc23)C1 [Example 514, (R)-1-(7-(7,8-difluoro-3-hydroxynaphthalen-1-yl)-8-fluoro-2-(((2R,7aS)-2-fluorohexahydro-1H-pyrrolizin-7a-yl)methoxy)pyrido[4,3-d]pyrimidin-4-yl)-3-methylpiperidin-3-ol] | 11 | 19 | 859 | 20 | – | 60 | 30 | 5 | – | 15 | – | – | – | – |
| O=S1(=O)NC[C@]2(CCCN(c3nc(OC[C@@]45CCCN4C[C@H](F)C5)nc4c(F)c(-c5cc(O)cc6ccc(F)c(Cl)c56)ncc34)C2)N1 [Example 515, (R)-7-(7-(8-chloro-7-fluoro-3-hydroxynaphthalen-1-yl)-8-fluoro-2-(((2R,7aS)-2-fluorotetrahydro-1H-pyrrolizin-7a(SB)-yl)methoxy)pyrido[4,3-d]pyrimidin-4-yl)-2-thia-1,3,7-triazaspiro[4.5]decane2,2-dioxide] | 7 | 19 | – | 36 | ≤ 2 | 19 | 24 | – | ≤ 2 | 35 | ≤ 2 | – | – | – |

Second part, led by results:

| IC50 (pERK in H358 cells) [nM] | IC50 (pERK in H727 cells) [nM] | IC50 (pERK in PSN1 cells) [nM] | IC50 (pERK in A549 cells) [nM] | IC50 (KRas G12D) [nM] | IC50 (pERK in H460 cells) [nM] | IC50 (pERK in HCT116 cells) [nM] | IC50 (pERK in MKN1 cells) [nM] | IC50 (KRas G12R) [nM] | IC50 (pERK in ASPC1 cells) [nM] | IC50 (KRas G12V) [nM] | SMILES | IC50 [1] [nM] | IC50 [2] [nM] | IC50 [3] [nM] |
| --- | --- | --- | --- | --- | --- | --- | --- | --- | --- | --- | --- | --- | --- | --- |
| 2 | 8 | 600 | 19 | – | 11 | 22 | 2 | – | 8 | – | CCc1c(F)ccc2cc(O)cc(-c3ncc4c(N5CCC[C@]6(C5)C[C@H](O)C6)nc(OC[C@@]56CCCN5C[C@H](F)C6)nc4c3F)c12 (single isomer, unassigned) [Example 323] | – | – | – |
| 14 | 22 | 1440 | 95 | – | 99 | 61 | 3 | – | 35 | – | CCc1c(F)ccc2cc(O)cc(-c3ncc4c(N5CCC[C@]6(C5)C[C@@H](O)C6)nc(OC[C@@]56CCCN5C[C@H](F)C6)nc4c3F)c12 (single isomer, unassigned) [Example 324] | – | – | – |
| 31 | 167 | 314 | – | ≤ 2 | 33 | 114 | 39 | ≤ 2 | 97 | ≤ 2 | CCc1c(F)ccc2cc(O)cc(-c3ncc4c(N5CCCC6(C5)NC(=O)NC6=O)nc(OC[C@@]56CCCN5C[C@H](F)C6)nc4c3F)c12 (stereo partly shown) [Example 196] | 48 | 361 | 452 |
| 15 | 85 | 106 | – | ≤ 2 | 12 | 33 | 5 | ≤ 2 | 58 | ≤ 2 | CCc1c(F)ccc2cc(O)cc(-c3ncc4c(N5CCC[C@]6(C5)NC(=O)NC6=O)nc(OC[C@@]56CCCN5C[C@H](F)C6)nc4c3F)c12 [Example 307, (R)-7-(7-(8-ethyl-7-fluoro-3-hydroxynaphthalen-1-yl)-8-fluoro-2-(((2R,7aS)-2-fluorohexahydro-1H-pyrrolizin-7a-yl)methoxy)pyrido[4,3-d]pyrimidin-4-yl)-1,3,7-triazaspiro[4.5]decane-2,4-dione] | 11 | 117 | 215 |
